# According to US20170291905A1, “ARGININE […] INHIBITORS AND USES THEREOF” (Epizyme, Inc., priority 2014, published 2017):
# pIC50: −log10 of the molar value. Structures can show the parent of a compound that is named as a salt.
# Molecular target: full-length human PRMT8 isoform 1 (Homo sapiens, UniProt Q9NR22)
# Assay: PRMT8 biochemical assay (3H-SAM Flashplate, histone H4 31-45 peptide)
# Conditions: 150 nM peptide
# From the text: S-adenosylmethionine (SAM), S-adenosylhomocysteine (SAH), bicine, Tween20, dimethylsulfoxide (DMSO), bovine skin gelatin (BSG), isopropyl-β-D-thiogalactopyranoside (IPTG), and Tris(2-carboxyethyl)phosphine hydrochloride solution (TCEP) were purchased from Sigma-Aldrich at the highest level of purity possible. ^3H-SAM was purchase from American Radiolabeled Chemicals with a specific activity of 80 Ci/mmol. 384-well streptavidin Flashplates were purchased from PerkinElmer.
# Peptide representative of human histone H4 residues 31-45 was synthesized with an N-terminal linker-affinity tag motif and a C-terminal amide cap by 21st Century Biochemicals. The peptide was purified by high-performance liquid chromatography (HPLC) to greater than 95% purity and confirmed by liquid chromatography mass spectrometry (LC-MS). The sequence was Biot-Ahx-[…]-amide (SEQ ID NO.:8).
# The resulting construct encodes an N-terminal GST tag and a thrombin cleavage sequence
# E. coli (BL21(DE3) Gold, Stratagene) made competent by the CaCl2 method were transformed with the PRMT8 construct and ampicillin selection. Protein over-expression was accomplished by growing the PRMT8 expressing E. coli clone and inducing expression with 0.3 mM IPTG at 16° C. The culture was grown for 12 hours, harvested by centrifugation, and stored at −80° C. for purification.
# GST-tagged PRMT8 was eluted with 50 mM Tris, 2 mM glutathione, pH 7.8. Pooled fractions were cleaved by thrombin (10U) and dialysed in buffer A. GST was removed by reloading the cleaved protein sample onto glutathione sepharose column and PRMT8 was collected in the flow-through fractions. PRMT8 was purified further by ceramic hydroxyapatite chromatography. The column was washed with 50 mM phosphate buffer, 100 mM NaCl, 5% glycerol, 5 mM […], pH 7.8 and PRMT8 was eluted by 100 mM phosphate in the same buffer. Protein was concentrated and buffer was exchanged to 50 mM Tris, 300 mM NaCl, 10% glycerol, 5 mM β-mercaptoethanol, pH 7.8 by ultrafiltration. The purity of recovered protein was 89%.
# General Procedure for PRMT8 Enzyme Assays on Peptide Substrates.
# The assays were all performed in a buffer consisting of 20 mM Bicine (pH=7.6), 1 mM TCEP, 0.005% BSG, and 0.002% Tween 20, prepared on the day of use. Compounds in 100% DMSO (1 ul) were spotted into a polypropylene 384-well V-bottom plates (Greiner) using a Platemate Plus outfitted with a 384-channel head (Thermo Scientific). DMSO (1 ul) was added to Columns 11, 12, 23, 24, rows A-H for the maximum signal control and 1 ul of SAH, a known product and inhibitor of PRMT8, was added to columns 11, 12, 23, 24, rows I-P for the minimum signal control. A cocktail (40 ul) containing the PRMT8 enzyme was added by Multidrop Combi (Thermo-Fisher). The compounds were allowed to incubate with PRMT8 for 30 min at room temperature, then a cocktail (10 ul) containing ^3H-SAM and peptide was added to initiate the reaction (final volume=51 ul). The final concentrations of the components were as follows: PRMT8 was 1.5 nM, ^3H-SAM was 50 nM, non-radiolabeled SAM was 550 nM, peptide was 150 nM, SAH in the minimum signal control wells was 1 mM, and the DMSO concentration was 2%. The assays were stopped by the addition of non-radiolabeled SAM (10 ul) to a final concentration of 400 uM, which dilutes the ^3H-SAM to a level where its incorporation into the peptide substrate is no longer detectable. 50 ul of the reaction in the 384-well polypropylene plate was then transferred to a 384-well Flashplate and the biotinylated peptides were allowed to bind to the streptavidin surface for at least 1 hour before being washed once with 0.1% Tween20 in a Biotek ELx405 plate washer. The plates were then read in a PerkinElmer TopCount plate reader to measure the quantity of ^3H-labeled peptide bound to the Flashplate surface, measured as disintegrations per minute (dpm) or alternatively, referred to as counts per minute (cpm). […]
# [1] = 1.5 nM PRMT8, 30 min preincubation
# Sequence of full-length human PRMT8 isoform 1 (Q9NR22 whole entry, canonical isoform): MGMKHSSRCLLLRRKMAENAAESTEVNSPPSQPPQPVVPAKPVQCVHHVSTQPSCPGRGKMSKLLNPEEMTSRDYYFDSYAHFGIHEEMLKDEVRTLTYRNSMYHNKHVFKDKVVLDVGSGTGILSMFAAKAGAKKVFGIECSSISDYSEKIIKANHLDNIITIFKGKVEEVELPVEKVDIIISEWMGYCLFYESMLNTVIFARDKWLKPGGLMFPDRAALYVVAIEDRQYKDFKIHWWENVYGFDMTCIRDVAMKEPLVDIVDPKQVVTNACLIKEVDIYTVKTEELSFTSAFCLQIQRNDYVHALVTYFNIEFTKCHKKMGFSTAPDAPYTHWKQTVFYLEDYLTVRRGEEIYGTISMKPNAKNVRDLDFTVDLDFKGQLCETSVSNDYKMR
SMILES,pIC50 [1],"pIC50 ([…] PRMT8, 30 min preincubation)"
CNCCN(C)Cc1scnc1[C@H]1CC[C@]2(CC1)CC(C)(C)CO2 [compound 84],7.62,
CNCCN(C)Cc1nn(C)nc1C1CCC2(CC1)CC(C)(C)CO2 (stereo not drawn) [compound 86],,7.30
CNCCN(C)Cc1nn[nH]c1[C@H]1CC[C@]2(CC1)CC(C)(C)CO2 [compound 89],6.86,
CNCCN(C)Cc1nncn1[C@H]1CC[C@]2(CC1)CC(C)(C)CO2 [compound 90],< 5.00,
CNCCN(C)Cc1nccn1[C@H]1CC[C@]2(CC1)CC(C)(C)CO2 [compound 91],5.93,
CNCCN(C)Cc1nnc(C)n1[C@H]1CC[C@]2(CC1)CC(C)(C)CO2 [compound 93],< 5.00,
CNCCN(C)Cc1c(Cl)ncn1[C@H]1CC[C@]2(CC1)CC(C)(C)CO2 [compound 97],6.28,
CNCCN(C)Cc1cncn1[C@H]1CC[C@]2(CC1)CC(C)(C)CO2 [compound 98],5.43,
CNCCN(C)Cc1nc(C)sc1[C@H]1CC[C@]2(CC1)CC(C)(C)CO2 [compound 99],7.31,
CNCCN(C)Cc1sc(C)nc1[C@H]1CC[C@]2(CC1)CC(C)(C)CO2 [compound 100],7.36,
CN(CCN)Cc1nn(C)cc1[C@H]1CC[C@]2(CC1)CC(C)(C)CO2 [compound 102],7.41,
CNCCN(C)Cc1nn(C)cc1[C@H]1CC[C@]2(CC1)CC(C)(C)CO2 [compound 103],7.37,
CN(CCN)Cc1c[nH]nc1[C@H]1CC[C@@]2(CC1)CC(C)(C)CO2 [compound 105],8.04,
CN(CCN)Cc1c[nH]nc1[C@H]1CC[C@]2(CC1)CC(C)(C)CO2 [compound 106],7.17,
CNCCN(C)Cc1c(C)noc1[C@H]1CC[C@@]2(CC1)CC(C)(C)CO2 [compound 113],7.29,
CNCCN(C)Cc1c(C)noc1[C@H]1CC[C@]2(CC1)CC(C)(C)CO2 [compound 114],7.17,
CNCCN(C)Cc1n[nH]cc1[C@H]1CC[C@@]2(CC1)CC(C)(C)CO2 [compound 115],7.79,
CNCCN(C)Cc1n[nH]cc1[C@H]1CC[C@]2(CC1)CC(C)(C)CO2 [compound 116],7.50,
CNCCN(C)Cc1nocc1[C@H]1CC[C@@]2(CC1)CC(C)(C)CO2 [compound 117],7.39,
CNCCN(C)Cc1nocc1[C@H]1CC[C@]2(CC1)CC(C)(C)CO2 [compound 118],6.32,
CCOCC1(COCC)CCC(c2n[nH]cc2CN(C)CCN(C)C)CC1 [compound 121],7.24,
CCOCC1(COCC)CCC(c2nn(C)cc2CN(C)CCNC)CC1 [compound 122],7.55,
CCOCC1(COCC)CCC(c2n[nH]cc2CN(C)CCN)CC1 [compound 123],8.02,
CCOCC1(COCC)CCC(c2nn(C)cc2CN(C)CCN)CC1 [compound 124],7.59,
CNCCN(C)Cc1c[nH]nc1C1CCC2(CC1)CC(C)(C)OC2=O (stereo not drawn) [compound 125],7.80,
"CNCCN(C)Cc1c[nH]nc1[C@H]1CC[C@@]2(CC1)COC(C)(C)C2 [compound 126, N1-((3-((5r,8r)-3,3-dimethyl-2-oxaspiro[4.5]decan-8-yl)-1H-pyrazol-4-yl)methyl)-N1,N2-dimethylethane-1,2-diamine]",7.67,
"CNCCN(C)Cc1c[nH]nc1[C@H]1CC[C@]2(CCCCO2)CC1 [compound 127, methyl([2-[methyl([3-[(6s,9r)-1-oxaspiro[5.5]undecan-9-yl]-1H-pyrazol-4-yl]methyl)amino]ethyl])amine bistrifluoroacetic acid salt]",7.79,
